Data published in US20260206761A1, “HETEROARYL-TRIAZOLE COMPOUNDS AS PESTICIDES” (Bayer Aktiengesellschaft, priority 2019, published 2026).

Tests used:
Format in all cases: in vivo
[1] = test system: adult cat fleas (Ctenocephalides felis); experiment: Ctenocephalides felis in-vitro contact test, adult cat flea; details: application rate 5 μg/cm^2 (=500 g/ha), after 48 hours, read-out: activity (efficacy: fleas dead or moribund)
Method in brief: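 Acetone solutions of compound coated onto inner walls of glass tubes (900 ppm giving […]); after drying, 5-10 adult Ctenocephalides felis added and held at room temperature. At 48 h, fleas placed on a 45-50° C heating plate; those unable to climb away scored dead or moribund, expressed as % efficacy.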

[2] = test system: Anopheles funestus strain FUMOZ-R; experiment: Anopheles funestus test (ANPHFU surface treatment & contact assay); details: 24 hours after contact, read-out: efficacy (mortality); for mortality at 4 mg/m2: surface concentration 4 mg/m^2, exposure 30 minutes; for mortality at 20 mg/m2: surface concentration 20 mg/m^2, exposure 30 minutes
Method in brief: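 Compound dissolved in acetone at 2 mg/ml with 2000 ppm RME, pipetted onto glazed tile; acetone evaporated. Adult FUMOZ-R mosquitoes exposed to dried surface for 30 min. Percent mortality scored 24 h after contact.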

[3] = test system: adult brown dog ticks (Rhipicephalus sanguineus); experiment: Rhipicephalus sanguineus in-vitro contact test, adult brown dog ticks; details: after 48 hours, read-out: activity (efficacy: ticks dead or moribund); for pest or weed control at 100 g/ha: application rate 1 pg/cm^2 (=100 g/ha); for pest or weed control at 5 µg/cm2, 500 g/ha: application rate 5 μg/cm^2 (=500 g/ha)
Method in brief: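 Compound in acetone was coated onto inner walls of glass tubes by rotation (2 h, 30 rpm); 900 ppm gives 5 μg/cm^2. After drying, 5-10 adult ticks were enclosed per tube at room temperature; after 48 h, heat-escape test at 45-50° C scored dead/moribund ticks as % efficacy.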

[4] = test system: adult engorged female ticks (Rhipicephalus microplus); experiment: Rhipicephalus (Boophilus) microplus injection test; details: 168 h, egg deposition after 7 days, read-out: activity (efficacy: infertile eggs); for pest or weed control at 4 pg: application rate 4 pg/animal; for pest or weed control at 0.02 mg: application rate 20 μg/animal
Method in brief: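 Efficacy is scored from egg fertility, with 100% meaning every egg infertile and 0% every egg fertile. Five engorged females per test received 1 μL DMSO solution abdominally. Eggs of unclear fertility were kept until hatching, about 42 days.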

[5] = test system: larvae of the southern green stink bug (Nezara viridula); experiment: Nezara viridula spray test; details: 96 h, after 4 days; for mortality at 100 g/ha: application rate 100 g/ha; for mortality at 500 g/ha: application rate 500 g/ha
Method in brief: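 Compound in acetone/dimethylformamide, diluted in water with 1000 ppm alkylarylpolyglycol ether emulsifier, sprayed onto barley plants carrying stink bug larvae. Mortality (%) scored after 4 days, 100% meaning all insects killed.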

[6] = test system: Culex quinquefasciatus strain P00; experiment: Culex quinquefasciatus test (CULXFA surface treatment & contact assay); details: 24 hours after contact, read-out: efficacy (mortality); for mortality at 4 mg/m2: surface concentration 4 mg/m^2, exposure 30 minutes; for mortality at 20 mg/m2: surface concentration 20 mg/m^2, exposure 30 minutes
Method in brief: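 Compound in acetone (2 mg/ml) with 2000 ppm rapeseed oil methyl ester, dried onto glazed tile. Adult mosquitoes exposed to the treated surface for 30 min. Percent mortality scored 24 h after contact.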

CC(C)c1nc([C@H](C)NC(=O)c2cc(OC(F)(F)F)cc(C3CC3)c2)n(-c2ccc(C#N)cn2)n1 [I-23]
80 to 100%: mortality at 4 mg/m2 [2] | mortality at 20 mg/m2 [2]
100%: pest or weed control at 5 µg/cm2 [1] | pest or weed control at 100 g/ha [3] | pest or weed control at 5 µg/cm2, 500 g/ha [3] | pest or weed control at 4 pg [4] | pest or weed control at 0.02 mg [4]

C[C@H](NC(=O)c1cc(Cl)cc(S(=O)(=O)C2CC2)c1)c1nc(C2CC2)nn1-c1ncc(Cl)cn1 [I-25]
100%: mortality at 100 g/ha [5] | pest or weed control at 5 µg/cm2 [1] | pest or weed control at 4 pg [4] | pest or weed control at 0.02 mg [4]
80 to 100%: mortality at 4 mg/m2 [6] | mortality at 20 mg/m2 [6]

CC(NC(=O)c1cc(C(F)(F)F)cc(S(C)(=O)=O)c1)c1nc(Cl)nn1-c1ncccn1 (stereo not drawn) [I-30]
80 to 100%: mortality at 4 mg/m2 [2] | mortality at 20 mg/m2 [2]
100%: mortality at 100 g/ha [5] | pest or weed control at 5 µg/cm2 [1] | pest or weed control at 100 g/ha [3] | pest or weed control at 5 µg/cm2, 500 g/ha [3] | pest or weed control at 4 pg [4] | pest or weed control at 0.02 mg [4]

CSc1cc(C#N)cc(C(=O)N[C@@H](C)c2ncnn2-c2ccc(C#N)cn2)c1 [II-3]
100%: mortality at 100 g/ha [5] | mortality at 500 g/ha [5] | pest or weed control at 5 µg/cm2 [1] | pest or weed control at 4 pg [4] | pest or weed control at 0.02 mg [4]
80 to 100%: mortality at 4 mg/m2 [6] | mortality at 20 mg/m2 [6] | mortality at 20 mg/m2 [2]

Cc1nc([C@H](C)NC(=O)c2cc(C(F)(F)F)n(C)n2)n(-c2ccc(C#N)cn2)n1 [II-7]
90%: mortality at 500 g/ha [5]
100%: pest or weed control at 5 µg/cm2 [1] | pest or weed control at 4 pg [4] | pest or weed control at 0.02 mg [4]
80 to 100%: mortality at 20 mg/m2 [6] | mortality at 4 mg/m2 [2]

Cc1nc([C@H](C)NC(=O)c2cc(Cl)nn2C)n(-c2ccc(C#N)cn2)n1 [II-11]
80 to 100%: mortality at 4 mg/m2 [6] | mortality at 4 mg/m2 [2] | mortality at 20 mg/m2 [2]
100%: pest or weed control at 5 µg/cm2 [1] | pest or weed control at 4 pg [4] | pest or weed control at 0.02 mg [4]
80%: pest or weed control at 100 g/ha [3] | pest or weed control at 5 µg/cm2, 500 g/ha [3]

C[C@H](NC(=O)c1cc(C#N)cc([S+](C)[O-])c1)c1ncnn1-c1ccc(C#N)cn1 (stereo partly drawn) [II-12]
100%: mortality at 100 g/ha [5] | mortality at 500 g/ha [5] | pest or weed control at 5 µg/cm2 [1] | pest or weed control at 4 pg [4] | pest or weed control at 0.02 mg [4]
80 to 100%: mortality at 4 mg/m2 [6] | mortality at 20 mg/m2 [6] | mortality at 4 mg/m2 [2] | mortality at 20 mg/m2 [2]

C[C@H](NC(=O)c1cc(C(F)(F)F)cc(S(C)(=O)=O)c1)c1ncnn1-c1ccc(Cl)cn1 [II-16]
80 to 100%: mortality at 4 mg/m2 [6] | mortality at 4 mg/m2 [2]
100%: mortality at 100 g/ha [5] | mortality at 500 g/ha [5] | pest or weed control at 5 µg/cm2 [1] | pest or weed control at 4 pg [4] | pest or weed control at 0.02 mg [4]

C[C@H](NC(=O)c1cc(Cl)cc(S(=O)(=O)C(F)F)c1)c1ncnn1-c1ccc(C#N)cn1 [II-17]
100%: mortality at 500 g/ha [5] | pest or weed control at 5 µg/cm2 [1] | pest or weed control at 4 pg [4] | pest or weed control at 0.02 mg [4]
80 to 100%: mortality at 4 mg/m2 [6] | mortality at 20 mg/m2 [6] | mortality at 4 mg/m2 [2]

C[C@H](NC(=O)c1cc(Cl)cc([S+]([O-])C(F)F)c1)c1ncnn1-c1ccc(C#N)cn1 (stereo partly drawn) [II-18, 3-chloro-N-{(1S)-1-[1-(5-cyanopyridin-2-yl)-1H-1,2,4-triazol-5-yl]ethyl}-5-[(difluoro-methyl)sulfinyl]benzamide]
80 to 100%: mortality at 4 mg/m2 [6] | mortality at 20 mg/m2 [6]
100%: mortality at 100 g/ha [5] | mortality at 500 g/ha [5] | pest or weed control at 5 µg/cm2 [1] | pest or weed control at 4 pg [4] | pest or weed control at 0.02 mg [4]

C[C@H](NC(=O)c1cc(OC(F)(F)F)cc(C2CC2)c1)c1ncnn1-c1ccccn1 [II-22]
80 to 100%: mortality at 20 mg/m2 [6]
100%: mortality at 500 g/ha [5] | pest or weed control at 5 µg/cm2 [1] | pest or weed control at 4 pg [4] | pest or weed control at 0.02 mg [4]

C[C@H](NC(=O)c1cc(OC(F)(F)F)cc(C2CC2)c1)c1ncnn1-c1ccc(Cl)cn1 [II-23]
80 to 100%: mortality at 4 mg/m2 [6] | mortality at 20 mg/m2 [6] | mortality at 20 mg/m2 [2]
100%: mortality at 100 g/ha [5] | mortality at 500 g/ha [5] | pest or weed control at 5 µg/cm2 [1] | pest or weed control at 100 g/ha [3] | pest or weed control at 5 µg/cm2, 500 g/ha [3] | pest or weed control at 4 pg [4] | pest or weed control at 0.02 mg [4]

Cc1nc([C@H](C)NC(=O)c2cc(C(F)(F)F)n(C)n2)n(-c2ncccn2)n1 [II-25]
80 to 100%: mortality at 4 mg/m2 [6] | mortality at 20 mg/m2 [6] | mortality at 4 mg/m2 [2] | mortality at 20 mg/m2 [2]
100%: mortality at 100 g/ha [5] | mortality at 500 g/ha [5] | pest or weed control at 5 µg/cm2 [1] | pest or weed control at 100 g/ha [3] | pest or weed control at 5 µg/cm2, 500 g/ha [3] | pest or weed control at 4 pg [4] | pest or weed control at 0.02 mg [4]

C[C@H](NC(=O)c1cc(C2CC2)cc(C(F)(F)F)c1)c1ncnn1-c1ccc(C#N)cn1 [II-26]
90%: pest or weed control at 5 µg/cm2 [1]
100%: mortality at 100 g/ha [5] | mortality at 500 g/ha [5] | pest or weed control at 100 g/ha [3] | pest or weed control at 5 µg/cm2, 500 g/ha [3] | pest or weed control at 4 pg [4] | pest or weed control at 0.02 mg [4]

C[C@H](NC(=O)c1cc(C#N)cc(S(C)(=O)=O)c1)c1ncnn1-c1ccc(Cl)cn1 [II-29]
80 to 100%: mortality at 4 mg/m2 [6]
100%: mortality at 100 g/ha [5] | mortality at 500 g/ha [5] | pest or weed control at 5 µg/cm2 [1] | pest or weed control at 5 µg/cm2, 500 g/ha [3] | pest or weed control at 4 pg [4] | pest or weed control at 0.02 mg [4]
80%: pest or weed control at 100 g/ha [3]

C[C@H](NC(=O)c1cc(C(F)(F)F)cc(S(=O)(=O)C2CC2)c1)c1ncnn1-c1ccc(C#N)cn1 [II-32]
80 to 100%: mortality at 4 mg/m2 [6] | mortality at 20 mg/m2 [6]
100%: mortality at 100 g/ha [5] | mortality at 500 g/ha [5] | pest or weed control at 100 g/ha [3] | pest or weed control at 5 µg/cm2, 500 g/ha [3] | pest or weed control at 4 pg [4] | pest or weed control at 0.02 mg [4]

Cc1nc([C@H](C)NC(=O)c2cc(Cl)cc(S(=O)(=O)C(F)F)c2)n(-c2ccc(C#N)cn2)n1 [II-35]
80%: pest or weed control at 5 µg/cm2, 500 g/ha [3]
100%: mortality at 100 g/ha [5] | mortality at 500 g/ha [5] | pest or weed control at 5 µg/cm2 [1] | pest or weed control at 4 pg [4] | pest or weed control at 0.02 mg [4]

Cc1nc([C@H](C)NC(=O)c2cc(Cl)cc(S(=O)(=O)C(F)F)c2)n(-c2ccc(Cl)cn2)n1 [II-36]
100%: mortality at 100 g/ha [5] | mortality at 500 g/ha [5] | pest or weed control at 5 µg/cm2 [1] | pest or weed control at 4 pg [4] | pest or weed control at 0.02 mg [4]
80%: pest or weed control at 5 µg/cm2, 500 g/ha [3]

Cc1nc([C@H](C)NC(=O)c2cc(Cl)cc(C3(C#N)CC3)c2)n(-c2ccc(C#N)cn2)n1 [II-38]
100%: pest or weed control at 5 µg/cm2 [1] | pest or weed control at 100 g/ha [3] | pest or weed control at 5 µg/cm2, 500 g/ha [3] | pest or weed control at 4 pg [4] | pest or weed control at 0.02 mg [4]

C[C@H](NC(=O)c1cc(Cl)cc(S(=O)(=O)C(F)(F)F)c1)c1ncnn1-c1ncc(OC(F)F)cn1 [II-43]
80 to 100%: mortality at 4 mg/m2 [6]
100%: mortality at 100 g/ha [5] | pest or weed control at 5 µg/cm2 [1] | pest or weed control at 4 pg [4] | pest or weed control at 0.02 mg [4]

Cc1nc([C@H](C)NC(=O)c2cc(C(F)(F)F)cc(C3(C#N)CC3)c2)n(-c2ccc(Cl)cn2)n1 [II-50]
100%: mortality at 100 g/ha [5] | pest or weed control at 5 µg/cm2 [1] | pest or weed control at 100 g/ha [3] | pest or weed control at 5 µg/cm2, 500 g/ha [3] | pest or weed control at 4 pg [4] | pest or weed control at 0.02 mg [4]

Cc1nc([C@H](C)NC(=O)c2cc(C(F)(F)F)cc(S(C)(=O)=O)c2)n(-c2ccc(C#N)cn2)n1 [II-52]
100%: mortality at 100 g/ha [5] | pest or weed control at 5 µg/cm2 [1] | pest or weed control at 100 g/ha [3] | pest or weed control at 5 µg/cm2, 500 g/ha [3] | pest or weed control at 4 pg [4]

C[C@H](NC(=O)c1cc(C#N)cc(C2CC2)c1)c1ncnn1-c1ncccn1 [II-54]
100%: mortality at 100 g/ha [5] | pest or weed control at 5 µg/cm2 [1] | pest or weed control at 100 g/ha [3]
80 to 100%: mortality at 20 mg/m2 [2]
